The values that follow come from ChEMBL document CHEMBL1125670, “Synthesis and evaluation of novel ether lipid nucleoside conjugates for anti-HIV-1 activity” (J Med Chem, 1991).

The test system of assay [1] is CEM-SS. Description: Concentration of compound required to 50% growth inhibition of CEM-SS cells.
Assay [2] deals with Human immunodeficiency virus 1. Description: Anti-HIV-1 activity against syncytial plaque formation. Format: functional, organism-based.
Assay [3] has as its system Human immunodeficiency virus 1. Description: Anti-HIV-1 activity against syncytial plaque formation at a conc. of 0.12 uM. The format is functional.
The test system of assay [4] is U1. Description: (§1) inhibition of HIV-1 induced RT production in U1 cells. The format is functional, Homo sapiens. Set-up: scale not given: the % may be the effect or the level left.
For assay [5], the system named is Human immunodeficiency virus 1. The assay can be described thus: Anti-HIV-1 activity against syncytial plaque formation at a conc. of 0.25 uM. Format: functional.
Assay [6] concerns Human immunodeficiency virus 1. Description: Anti-HIV-1 activity against syncytial plaque formation at a conc. of 0.06 uM. Format: functional.
Assay [7] concerns Human immunodeficiency virus 1. Description: Anti-HIV-1 activity against syncytial plaque formation at a conc. of 0.03 uM. The format is functional.
In assay [8] the test system is Human immunodeficiency virus 1. The assay can be described thus: Anti-HIV-1 activity against syncytial plaque formation at a conc. of 0.5 uM. Format: functional.
For assay [9], the system named is Human immunodeficiency virus 1. Description: Anti-HIV-1 activity against syncytial plaque formation at a conc. of 1 uM. The format is functional.
For assay [10], the system named is U1. Description: (§2) inhibition of p24 core antigen synthesis in U1 cells. Format: functional, Homo sapiens. Set-up: scale not given: the % may be the effect or the level left.
For assay [11], the system named is U1. The assay can be described thus: (§3) inhibition of infectious virus production in U1 cells. The format is functional, Homo sapiens. Set-up: scale not given: the % may be the effect or the level left.
The subject of assay [12] is Human immunodeficiency virus 1. Description: Anti-HIV-1 activity against syncytial plaque formation at a conc. of 0.0003 uM. Format: functional.
Assay [13] has as its system Human immunodeficiency virus 1. Description: Anti-HIV-1 activity against syncytial plaque formation at a conc. of 0.0015 uM. The format is functional.
Assay [14] concerns Human immunodeficiency virus 1. The assay can be described thus: Anti-HIV-1 activity against syncytial plaque formation at a conc. of 0.012 uM. Format: functional.
For assay [15], the system named is U1. The description is as §3. Format: functional, Homo sapiens.
Assay [16] deals with Human immunodeficiency virus 1. Description: Anti-HIV-1 activity against syncytial plaque formation at a conc. of 0.006 uM. Format: functional.
Assay [17] relates to Human immunodeficiency virus 1. The assay can be described thus: Anti-HIV-1 activity against syncytial plaque formation at a conc. of 0.003 uM. Format: functional.
Assay [18] deals with U1. Described as §2. Format: functional, Homo sapiens.
The test system of assay [19] is Human immunodeficiency virus 1. Description: Anti-HIV-1 activity against syncytial plaque formation at a conc. of 0.0007 uM. The format is functional.
Assay [20] has as its system U1. The description is as §1. Format: functional, Homo sapiens.

Consider `CCCCCCCCCCCCCCCCCC(=O)NCC(COP(=O)(O)O)OCC` (stereo not given), for which the IC50 in assay [1] and in assay [2] was over 100 µM throughout.
In assay [3], `CCCCCCCCCCCCCCCCCC(=O)[N-]CC(COP(=O)([O-])OCC[N+](C)(C)C)OCC.[Na+]` (stereo not given) returned an inhibition at 0.12 µM of 49%. Moreover, the IC50 is 14.3 µM in assay [1] and 0.11 µM in assay [2]. Further, the results for the Control in assay [4], in assay [10] and in [11] were 147%, 74% and 33%, respectively. In assay [5], this compound displayed an inhibition at 0.25 µM of 60%. This compound also returned an inhibition at 0.06 µM in [6] of 34%. The compound also registered an inhibition at 0.03 µM in assay [7] of 14%. This compound also gave an inhibition at 0.5 µM in assay [8] of 74%. The compound further showed an inhibition at 1 µM in [9] of 89%.
Take `CCCCCCCCCCCCCCCCSCC(COP(=O)([O-])OCC[N+](C)(C)C)OCC` (stereo not given): the values for the IC50 in assay [1] and in [2] were 4.1 µM and 0.6 µM, respectively.
Turning to `CCCCCCCCCCCCCCCCCC(=O)NCC(CO)OCC` (stereo not given), the IC50 in assay [1] and in [2] was over 100 µM in each case.
Consider `CCCCCCCCCCCCCCCCCC(=O)NCC(COP(=O)([O-])OC[C@H]1O[C@@H](n2cc(C)c(=O)[nH]c2=O)C[C@@H]1N=[N+]=[N-])OCC.[Na+]` (stereo not given in full), for which the IC50 in assay [1] is 53.8 µM; in assay [2], 0.03 µM. Moreover, the figures for the Control in assay [4], in assay [10] and in assay [11] were 121%, 84% and 67%, respectively.
`CCCCCCCCCCCCCCCCOCC(COP(=O)(O)OC[C@H]1O[C@@H](n2cc(C)c(=O)[nH]c2=O)C[C@@H]1N=[N+]=[N-])OCC` (stereo not given in full): the IC50 in [1] amounted to 35 µM; in assay [2], 0.03 µM.
On to `CCCCCCCCCCCCCCCCCC(=O)NCC(COP(=O)(O)OC[C@@H]1CC[C@H](n2cnc3c(=O)[nH]cnc32)O1)OCC` (stereo not given in full), for which the IC50 in assay [1] is over 100 µM; in [2] it was 1.56 µM.
As for `O=c1[nH]cnc2c1ncn2[C@H]1CC[C@@H](CO)O1` [DIDANOSINE], the IC50 in assay [1] is over 100 µM; in [2] it was 1.7 µM.
With `CCCCCCCCCCCCCCCCCCOCC(COP(=O)([O-])OCC[N+](C)(C)C)OC` (stereo not given) [EDELFOSINE], the IC50 in assay [1] turned out to be 4 µM; in [2], 1.4 µM.
On to `Cc1cn([C@H]2C[C@H](N=[N+]=[N-])[C@@H](CO)O2)c(=O)[nH]c1=O` [ZIDOVUDINE], for which the IC50 in assay [1] was found to be 5.1 µM. Besides, testing at 0.0003 µM in assay [12] gave an inhibition of 18%. At 0.0015 µM the inhibition in assay [13] was 70%. The inhibition at 0.012 µM in assay [14] is 93%. Moreover, the Of control in [15] is on record as 87%; in assay [18], 101%; in [20], 90%. The compound further showed an inhibition at 0.006 µM in [16] of 87%. For the same compound, the inhibition at 0.003 µM in assay [17] came out at 79%. The compound further registered an inhibition at 0.0007 µM in [19] of 53%.
